Measured values as given in ChEMBL document CHEMBL1143749, “A new therapeutic approach in Alzheimer disease: some novel pyrazole derivatives as dual MAO-B inhibitors and antiinflammatory analgesics” (Bioorg Med Chem, 2007).

Columns and labels:
[1] = target: T1, Amine oxidase [flavin-containing] A (Rattus norvegicus, UniProt P21396); assay: Inhibition of rat liver MAOA after 60 mins pre-incubation
T1 sequence (P21396 whole entry): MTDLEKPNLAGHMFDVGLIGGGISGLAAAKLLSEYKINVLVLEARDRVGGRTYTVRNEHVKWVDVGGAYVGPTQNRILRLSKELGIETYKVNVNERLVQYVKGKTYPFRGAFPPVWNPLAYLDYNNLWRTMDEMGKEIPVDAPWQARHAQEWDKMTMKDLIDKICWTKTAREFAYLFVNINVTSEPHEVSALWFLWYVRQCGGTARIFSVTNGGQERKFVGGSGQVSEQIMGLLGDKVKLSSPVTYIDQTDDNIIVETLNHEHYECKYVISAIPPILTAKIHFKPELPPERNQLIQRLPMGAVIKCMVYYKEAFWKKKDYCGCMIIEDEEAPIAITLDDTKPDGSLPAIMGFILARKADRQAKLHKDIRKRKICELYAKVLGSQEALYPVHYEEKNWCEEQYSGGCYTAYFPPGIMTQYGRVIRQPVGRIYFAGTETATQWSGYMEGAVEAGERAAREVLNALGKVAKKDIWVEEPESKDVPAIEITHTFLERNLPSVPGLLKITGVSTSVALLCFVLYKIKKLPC

[2] = target: T2, Amine oxidase [flavin-containing] B (Rattus norvegicus, UniProt P19643); assay: Inhibition of rat liver MAOB after 60 mins pre-incubation
T2 sequence (P19643 whole entry): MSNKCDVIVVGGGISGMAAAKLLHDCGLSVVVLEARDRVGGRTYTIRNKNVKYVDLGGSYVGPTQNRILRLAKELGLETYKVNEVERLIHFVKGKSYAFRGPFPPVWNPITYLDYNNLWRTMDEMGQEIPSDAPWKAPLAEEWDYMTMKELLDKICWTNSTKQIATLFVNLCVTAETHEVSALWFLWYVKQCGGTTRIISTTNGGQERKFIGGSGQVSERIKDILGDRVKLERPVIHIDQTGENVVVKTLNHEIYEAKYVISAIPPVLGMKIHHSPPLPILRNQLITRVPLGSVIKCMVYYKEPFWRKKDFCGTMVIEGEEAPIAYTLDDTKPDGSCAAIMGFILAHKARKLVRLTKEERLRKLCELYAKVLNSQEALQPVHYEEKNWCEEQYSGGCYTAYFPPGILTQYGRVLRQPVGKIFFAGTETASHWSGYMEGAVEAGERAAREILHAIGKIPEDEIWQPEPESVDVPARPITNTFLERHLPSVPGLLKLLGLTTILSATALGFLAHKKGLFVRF

Mus musculus [3] = assay: Analgesic activity against p-Benzoquinone-induced writhings in Swiss Albino mouse assessed as number writhings at 100 mg/kg, po; type: functional
Mus musculus [4] = assay: Inhibition of p-Benzoquinone-induced writhings in Swiss Albino mouse at 100 mg/kg, po relative to control; type: functional; details: for inhibition in vivo at 100 mg/kg: Mus musculus, Swiss Albino, po
Mus musculus [5] = assay: Toxicity in Swiss Albino mouse assessed as ulcerogenic abdomen lesions at 100 mg/kg, po; type: organism-based; parameters: dose 100 mg/kg, route oral; details: in vivo
Mus musculus [6] = assay: Inhibition of carrageenan-induced hind paw oedema in Swiss Albino mouse at 100 mg/kg, po after 90 mins relative to control; type: functional; details: for inhibition in vivo at 100 mg/kg: Mus musculus, Swiss Albino, po, 1.5 h
Mus musculus [7] = assay: Inhibition of carrageenan-induced hind paw oedema in Swiss Albino mouse at 100 mg/kg, po after 180 mins relative to control; type: functional; details: for inhibition in vivo at 100 mg/kg: Mus musculus, Swiss Albino, po, 3 h
Mus musculus [8] = assay: Inhibition of carrageenan-induced hind paw oedema in Swiss Albino mouse at 100 mg/kg, po after 270 mins relative to control; type: functional; details: for inhibition in vivo at 100 mg/kg: Mus musculus, Swiss Albino, po, 4.5 h
Mus musculus [9] = assay: Inhibition of carrageenan-induced hind paw oedema in Swiss Albino mouse at 100 mg/kg, po after 360 mins relative to control; type: functional; details: for inhibition in vivo at 100 mg/kg: Mus musculus, Swiss Albino, po, 6 h
[10] = target: T1, Amine oxidase [flavin-containing] A; assay: Inhibition of rat liver MAOA
Mus musculus [11] = assay: Inhibition of acetic acid-induced capillary permeability in Swiss Albino mouse at 100 mg/kg, po; type: functional
[12] = target: T2, Amine oxidase [flavin-containing] B; assay: Inhibition of rat liver MAOB
Mus musculus [13] = assay: Inhibition of acetic acid-induced capillary permeability in Swiss Albino mouse at 10 mg/kg, po; details: read-out: Inhibition

| SMILES | IC50 [1] [µM] | IC50 [2] [µM] | writhing count (Mus musculus [3]) [writhings] | inhibition in vivo at 100 mg/kg (Mus musculus [4]) [%] | Activity (Mus musculus [5]) | inhibition in vivo at 100 mg/kg (Mus musculus [6]) [%] | inhibition in vivo at 100 mg/kg (Mus musculus [7]) [%] | inhibition in vivo at 100 mg/kg (Mus musculus [8]) [%] | inhibition in vivo at 100 mg/kg (Mus musculus [9]) [%] | Inhibition (Mus musculus [4]) [%] | Inhibition (Mus musculus [6]) [%] | Inhibition (Mus musculus [7]) [%] | Inhibition (Mus musculus [8]) [%] | Inhibition (Mus musculus [9]) [%] | Ki [10] [µM] | inhibition in vivo at 100 mg/kg (Mus musculus [11]) [%] | Ki [12] [µM] | Activity (Mus musculus [3]) | inhibition in vivo at 10 mg/kg (Mus musculus [13]) [%] |
| --- | --- | --- | --- | --- | --- | --- | --- | --- | --- | --- | --- | --- | --- | --- | --- | --- | --- | --- | --- |
| CCNC(=S)N1N=C(c2ccc(C)cc2)CC1c1ccc[nH]1 (stereo not drawn) | 329 | 369 | 41.3 | 15.4 | Non-toxic | 4.9 | 10.5 | 12.4 | 16.3 |  |  |  |  |  |  |  |  |  |  |
| Cc1ccc(C2=NN(C(=S)Nc3ccccc3)C(c3ccc[nH]3)C2)cc1 (stereo not drawn) | 300 | 351 | 45.2 |  | Non-toxic |  |  |  |  | 7.4 | 9.1 | 13.1 | 6.1 | 11.8 |  |  |  |  |  |
| CNC(=S)N1N=C(c2ccc(Cl)cc2)CC1c1ccc[nH]1 (stereo not drawn) | 11.2 | 416 | 37.8 | 22.5 |  |  | 6.6 | 7.2 | 1.9 |  |  |  |  |  | 13.2 | 20.7 |  |  |  |
| CCCNC(=S)N1N=C(c2ccc(Cl)cc2)CC1c1ccc[nH]1 (stereo not drawn) | 29.2 | 421 | 20.5 | 57.9 | Non-toxic | 19.8 | 25.2 | 23.9 | 28.1 |  |  |  |  |  | 33.2 | 28.3 |  |  |  |
| CCNC(=S)N1N=C(c2ccc(OC)cc2)CC1c1ccc[nH]1 (stereo not drawn) | 400 | 22.1 | 21.2 | 56.6 | Non-toxic | 23.2 | 22.7 | 18.9 | 27.6 |  |  |  |  |  |  | 25.9 | 24 |  |  |
| CCCNC(=S)N1N=C(c2ccc(OC)cc2)CC1c1ccc[nH]1 (stereo not drawn) | 409 | 29.1 | 19.5 | 60 | Non-toxic | 20.3 | 23.6 | 22.6 | 32.8 |  |  |  |  |  |  | 34.8 | 33.7 |  |  |
| CCNC(=S)N1N=C(c2ccc(Cl)cc2)CC1c1ccc[nH]1 (stereo not drawn) | 20.2 | 450 | 21.5 | 55.9 | Non-toxic | 16.1 | 21.3 | 20.6 | 24 |  |  |  |  |  | 26.9 | 23.5 |  |  |  |
| CNC(=S)N1N=C(c2ccc(OC)cc2)CC1c1ccc[nH]1 (stereo not drawn) | 430 | 12.5 | 39.2 | 19.7 | Non-toxic | 14.2 | 14.7 | 10.5 | 17.7 |  |  |  |  |  |  |  | 12.5 |  |  |
| CNC(=S)N1N=C(c2ccc(C)cc2)CC1c1ccc[nH]1 (stereo not drawn) | 295 | 349 | 39.7 | 18.6 | Non-toxic | 13.2 | 11.2 | 12.2 | 16.3 |  |  |  |  |  |  |  |  |  |  |
| CCCNC(=S)N1N=C(c2ccc(C)cc2)CC1c1ccc[nH]1 (stereo not drawn) | 369 | 389 | 25.3 | 48.2 | Non-toxic | 14.6 | 20.9 | 15.7 | 22.7 |  |  |  |  |  |  |  |  |  |  |
| COc1ccc(C2=NN(C(=S)Nc3ccccc3)C(c3ccc[nH]3)C2)cc1 (stereo not drawn) | 431 | 30.1 | 25.2 | 48.4 | Non-toxic | 20.7 | 22.6 | 16.5 | 21.6 |  |  |  |  |  |  | 22.3 | 37.1 |  |  |
| Cl.S=C(Nc1ccccc1)N1N=C(c2ccc(Cl)cc2)CC1c1ccc[nH]1 (stereo not drawn) | 59.3 | 441 |  |  | Non-toxic |  |  |  |  |  |  |  |  |  | 60.8 |  |  |  |  |
| CC(=O)Oc1ccccc1C(=O)O [ASPIRIN] |  |  |  | 54.3 |  |  |  |  |  |  |  |  |  |  |  |  |  | 22.3 |  |
| COc1ccc2c(c1)c(CC(=O)O)c(C)n2C(=O)c1ccc(Cl)cc1 [INDOMETHACIN] |  |  |  |  |  | 32.3 | 37.1 | 33.6 | 42.2 |  |  |  |  |  |  |  |  |  | 48.1 |
| C#CCN(C)Cc1ccccc1 [PARGYLINE] | 390 | 2.85 |  |  |  |  |  |  |  |  |  |  |  |  |  |  |  |  |  |
